How the values were obtained:
[1] = tested on: Hartley guinea pigs; assay: Termination effect on fingolimod-induced bradyarrhythmia in isoflurane-anesthetized guinea pig model; format: in vivo
From the text: Hartley guinea pigs (7 to 10 weeks old, male, available from Japan SLC, Inc.) were subjected to anesthetic induction by inhalation of isoflurane (available from Pfizer Japan Inc.), and each animal was held on an operating table having a heater function. The trachea was incised, and a tracheal cannula (KN-375, available from Natsume Seisakusho Co., Ltd.) was inserted. The tracheal cannula was connected to a ventilator (SN-480-7, available from Shinano Seisakusho Co., Ltd.), and artificial respiration was controlled by supplying 100% oxygen at a volume of 10 mL and a ventilation rate of 60 times/minute. Isoflurane (available from Pfizer Japan Inc.) anesthesia (about 1 to 4%, carrier gas: 100% oxygen) was used for maintenance of anesthesia. A catheter (BD intramedic polyethylene tubing PE50, available from Becton, Dickinson and Company) charged with 50 units/mL heparin (available from AY PHARMACEUTICALS CO., LTD.) was inserted into each of the carotid artery and the jugular vein and placed in the blood vessel. Systemic blood pressure was measured with a high-sensitivity DC amplifier (AD-611J, available from NIHON KOHDEN CORPORATION) via the catheter placed in the carotid artery. Electrodes were attached to the body surface, and a body surface electrocardiogram was measured with a high-sensitivity amplifier (AB-611J, available from NIHON KOHDEN CORPORATION). Blood pressure and electrocardiogram data were acquired and analyzed with PowerLab/Labchart system (available from ADInstruments). After stabilization of each parameter, fingolimod hydrochloride (available from Nissan Chemical Corporation) was continuously administered intravenously at 0.1 mg/kg for 10 minutes via the catheter placed in the jugular vein, followed by observation of the presence or absence of atrioventricular block. After confirmation that atrioventricular block continued for 10 minutes from the onset thereof, a solvent or compound (I) dihydrochloride was continuously administered intravenously at 0.1 mg/kg for 30 minutes, and the effect of terminating atrioventricular block was observed during the intravenous administration. The solvent used was saline (available from Otsuka Pharmaceutical Factory, Inc.). Data were recorded and blood was collected 10, 20, and 30 minutes after initiation of administration of compound (I) dihydrochloride and at the time of termination of atrioventricular block. The observation was terminated 30 minutes after initiation of the administration, and the animal was euthanized by exsanguination or intravenous administration of a large amount of saturated potassium chloride solution under isoflurane anesthesia. Data were analyzed for the presence or absence of the termination, the time required for the termination, and the plasma concentration of compound (I) at the time of termination. The plasma was collected by centrifuging the blood and cryopreserved at about −20° C. After thawing of the plasma, plasma drug concentrations were measured using LC/MS/MS after deproteinization with acetonitrile.
In Table 1, the measurements are shown as mean±standard error.

[2] = tested on: human iPS cell-derived atrial myocytes; assay: Siponimod-induced decrease in beating rate in human iPS cell-derived atrial myocytes (multi-electrode array); format: cell-based; conditions: 0.1 μM compound (I) added after 0.1 μM siponimod, observed 10 minutes; FIG. 6
Protocol: Cryopreserved human iPS cell-derived atrial myocytes (Human iPSC-derived atrial cardiomyocytes, available from Axol Bioscience) were thawed and seeded at 1,400,000 cells/well on a fibronectin-coated 6-well plate, followed by culturing in an incubator at 37° C. and 5% CO2 for 11 days. During the culture, the entire amount of medium was changed every other day. After the elapse of 11 days, human iPS cell-derived atrial myocytes that started beating were removed from the plate and recovered with TrypLE Select Enzyme (available from ThermoFisher Scientific). The atrial myocytes were seeded at 25,000 cells/2 μL on a fibronectin-coated 6-well MEA Chip (60-6well MEA200/30iR-Ti-tcr, available from Multi Channel Systems) and cultured in an incubator at 37° C. and 5% CO2 for one hour. Thereafter, 400 μL of medium was added and cultured in an incubator at 37° C. and 5% CO2 for 13 days. During the culture, a half amount of the medium was changed every other day. After the elapse of […], the MEA Chip was set in a multi-electrode array system (MEA2100, available from Multi Channel Systems) to thereby obtain extracellular potentials under spontaneous beating. […] Data were analyzed with Labchart System (available from ADInstruments).
In FIG. 6, the measurements are shown as mean±standard error, and (I) denotes compound (I).

[3] = tested on: Wistar rats; assay: Therapeutic effect on propranolol-induced bradyarrhythmia in conscious rat (telemetry); format: in vivo; conditions: compound (I) dihydrochloride 1 mg/kg i.p. about 30 min after propranolol 1 mg/kg i.p.; awake rats; FIG. 8
From the text: Wistar rats (10 weeks old, male, available from Kiwa Laboratory Animals Co., Ltd.) were anesthetized by inhalation of Sevofrane (available from Maruishi Pharmaceutical Co., Ltd.) and held on an operating table. An implantable telemetry transmitter ETA-F10 (DSI) was placed subcutaneously in each rat, and one lead was fixed to each of the upper right chest and the left lower chest. After being fully awakened, the rat was placed in a cage on the receiving board, and a body surface electrocardiogram was measured with a high-sensitivity amplifier. Electrocardiogram data were acquired and analyzed with LabChart Pro & LabChart module (available from Bio Research Center Co., Ltd.). After stabilization of the heart rate, propranolol (Inderal Injection, available from AstraZeneca K.K.) was administered by intraperitoneal injection at a dose of 1 mg/kg. After the elapse of about 30 minutes, the stabilization of the heart rate was determined, and then saline or compound (I) dihydrochloride was administered by intraperitoneal injection at a dose of 1 mg/kg. Thirty minutes after the administration, the heart rate in a stable state was measured for evaluation. The solvent used was saline (available from Otsuka Pharmaceutical Factory, Inc.). […]

[4] = tested on: beagle dog; assay: Therapeutic effect on propranolol-induced bradycardia in conscious beagle dog; format: in vivo; conditions: compound (I) dihydrochloride 0.01, 0.1, 1 mg/kg bolus i.v., FIG. 9
Protocol: A peripheral venous path was secured with an 18 G needle in the right forelimb of a beagle dog (body weight: about 10 kg, female, available from Oriental Yeast Co., Ltd.), and then held on an operating table. Heart rate was monitored with an electrocardiographic monitor worn on the animal. A manchette was worn on the left forelimb, and blood pressure was measured with an Omron automatic electronic sphygmomanometer. The left ventricular function was measured by the M-mode method using the echocardiographic left parasternal short-axis two-chamber view. After stabilization of the heart rate, propranolol (Inderal Injection, available from AstraZeneca K.K.) was administered by bolus intravenous injection at a dose of 2 mg/kg, followed by continuous intravenous injection at a dose of 1 mg/minute with a syringe pump. After the elapse of about 30 minutes, the stabilization of the heart rate was determined, and then saline and compound (I) dihydrochloride (0.01 mg/kg, 0.1 mg/kg, 1 mg/kg) were administered by bolus intravenous injection at 10-minute intervals. About 10 minutes after each administration, heart rate, blood pressure, and left ventricular function were measured and evaluated in a stable state. The solvent used was saline (available from Otsuka Pharmaceutical Factory, Inc.).

Cc1cc(CO)nc2cc3c(cc12)OC(C)(C)[C@H](O)[C@H]3NCCc1ccccc1 [Compound (I), (3R,4S)-7-Hydroxymethyl-2,2,9-trimethyl-4-(phenethylamino)-3,4-dihydro-2H-pyrano[2,3-g]quinoline-3-ol]
fingolimod-induced bradyarrhythmia (atrioventricular block: A-V block) termination ([1]; compound (I) dihydrochloride 0.1 mg/kg continuous i.v.): completely terminated | Number of cases where atrioventricular block was terminated ([1]; fingolimod-induced block, compound (I) dihydrochloride 0.1 mg/kg continuous i.v. for 30 minutes): 5/5 | Time required for the termination of atrioventricular block ([1]; fingolimod-induced block, compound (I) dihydrochloride 0.1 mg/kg continuous i.v. for 30 minutes, mean±standard error): 750 ± 43 s | Compound (I) concentration at the time of termination ([1]; plasma, fingolimod-induced block, 0.1 mg/kg continuous i.v. for 30 minutes, mean±standard error): 30.9 ± 1.9 ng/mL | effect on siponimod-induced decrease in beating rate [2]: increased the beating rate and improved bradyarrhythmia | propranolol-induced bradycardia (heart rate) [3]: improved bradycardia | effect on cardiac contraction inhibitory action of propranolol (left ventricular ejection fraction) [4]: did not affect | propranolol-induced bradycardia (heart rate) ([4]; propranolol 2 mg/kg bolus then 1 mg/minute i.v.): improved bradycardia
